Earlier results in patent US20180009934A1, “HIGH […] […] RESINS” (priority 2016, published 2018).

Settings: monomer property, Table 1; species and route not given

C=Cc1ccc(C(C)(C)C)cc1 [Monomer 1, 4-tert butyl styrene]
Toxicity LD50: >2000 mg/kg

C=Cc1ccccc1 [STYRENE, styrene]
Toxicity LD50: >2000 mg/kg
